Reference: US11661422B2, “Tricyclic urea compounds as JAK2 V617F inhibitors” (Incyte Corporation, priority 2020, dated 2023)

What was measured:
[1] = biological target: catalytic domain (JH1, amino acids 826-1132) of human JAK2 (Homo sapiens (Human), UniProt O60674); experiment: JAK2 LanthaScreen JH1 Binding Assay; settings: JAK2 JH1 1.5 nM, 50 nM fluorescent tracer, 2 hours at 25° C.; read-out: JH1 BIND IC50
Protocol: Example A. JAK2 LanthaScreen JH1 Binding Assay
(§1) JAK2 JH1 binding assay utilizes catalytic domain (JH1, amino acids 826-1132) of human JAK2 expressed as N-terminal FLAG-tagged, biotinylated protein in a baculovirus expression system (Carna Biosciences, Product #08-445-20N). The assay was conducted in black 384-well polystyrene plates in a final reaction volume of 20 μL. JAK2 JH1 (1.5 nM) was incubated with compounds (100 nL serially diluted in DMSO) in the presence of 50 nM Fluorescent JAK2-JH1 Tracer and 0.5 nM Streptavidin-Tb cryptate (Cisbio Part #610SATLB) in assay buffer (50 mM Tris, pH=7.5, 10 mM MgCl2, 0.01% Brij-35, 0.1% BSA, 1 mM EGTA, 5% Glycerol and 5 mM DTT). Non-specific binding was accessed in the presence of 2 mM ATP. After incubation for 2 hours at 25° C., LanthaScreen signals were read on a PHERAstar FS plate reader (BMG LABTECH). Data was analyzed with IDBS XLfit and GraphPad Prism 5.0 software using a four parameter dose response curve to determine IC50 for each compound.

[2] = biological target: pseudo-kinase domain (JH2, amino-acids 536-812) of human V617F mutant JAK2 (Homo sapiens (Human), UniProt O60674, F794H/V617F/W659A/W777A); experiment: JAK2 LanthaScreen JH2-V617F Binding Assay; settings: JAK2 JH2-V617F 0.26 nM, 50 nM fluorescent tracer, 1 hour at 25° C.; read-out: JH2 BIND V617F IC50
pseudo-kinase domain (JH2, amino-acids 536-812) of human V617F mutant JAK2, sequence (O60674 536-812 V617F/W659A/W777A/F794H): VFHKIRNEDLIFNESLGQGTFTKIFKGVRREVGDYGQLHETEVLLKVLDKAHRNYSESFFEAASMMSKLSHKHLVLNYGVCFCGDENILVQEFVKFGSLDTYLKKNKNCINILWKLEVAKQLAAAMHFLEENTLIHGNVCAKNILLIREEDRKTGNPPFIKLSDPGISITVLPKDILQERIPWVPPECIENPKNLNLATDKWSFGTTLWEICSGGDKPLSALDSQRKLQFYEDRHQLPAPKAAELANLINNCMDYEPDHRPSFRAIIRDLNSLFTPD
Protocol: The assay was conducted in black 384-well polystyrene plates in a final reaction volume of 20 μL. […] Non-specific binding was accessed in the presence of 2 mM ATP. After incubation for 1 hour at 25° C., LanthaScreen signals were read on a PHERAstar FS plate reader (BMG LABTECH). Data was analyzed with IDBS XLfit and GraphPad Prism 5.0 software using a four parameter dose response curve to determine IC50 for each compound.

[3] = biological target: pseudo-kinase domain (JH2, amino-acids 536-812) of human Wild Type JAK2 (Homo sapiens (Human), UniProt O60674, F794H/W659A/W777A); experiment: JAK2 LanthaScreen JH2-WT Binding Assay; settings: JAK2 JH2-WT 0.145 nM, 50 nM fluorescent tracer, 1 hour at 25° C.; read-out: JH2 BIND WT IC50
pseudo-kinase domain (JH2, amino-acids 536-812) of human Wild Type JAK2, sequence (O60674 536-812 W659A/W777A/F794H): as the sequence (O60674 536-812 V617F/W659A/W777A/F794H) above, with F82V counted along it
Protocol: Example B. JAK2 LanthaScreen JH2-WT Binding Assay
as §1, with “The” for “JAK2 JH1 binding assay utilizes catalytic domain (JH1, amino acids 826-1132) of human JAK2 expressed as N-terminal FLAG-tagged, biotinylated protein in a baculovirus expression system (Carna Biosciences, Product #08-445-20N). The”, “JH2-WT (0.145” for “JH1 (1.5”, “JAK2-JH2” for “JAK2-JH1”, “Tracer (MedChem Express Catalog #HY-102055)” for “Tracer”, “0.25” for “0.5”, “1 hour” for “2 hours”

[4] = biological target: catalytic domain (JH1, amino acids 808-1132) of human JAK2 (Homo sapiens (Human), UniProt O60674); experiment: JAK2 HTRF Enzyme Activity Assay; assay type: biochemical; settings: JAK2 0.015 nM, ATP (30 μM or 1 mM), 60 minutes at 25° C.
catalytic domain (JH1, amino acids 808-1132) of human JAK2, sequence (O60674 808-1132): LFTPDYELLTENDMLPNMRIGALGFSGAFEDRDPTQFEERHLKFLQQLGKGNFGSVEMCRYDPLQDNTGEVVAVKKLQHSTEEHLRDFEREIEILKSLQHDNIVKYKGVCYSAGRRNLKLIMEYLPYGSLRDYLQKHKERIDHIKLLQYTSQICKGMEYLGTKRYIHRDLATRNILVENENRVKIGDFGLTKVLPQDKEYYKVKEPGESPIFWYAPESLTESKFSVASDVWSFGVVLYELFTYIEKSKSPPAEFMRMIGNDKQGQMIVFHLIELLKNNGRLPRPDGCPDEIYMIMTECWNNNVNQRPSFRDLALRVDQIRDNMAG
Protocol: Example D. JAK2 HTRF Enzyme Activity Assay
JAK2 enzyme activity assays utilize catalytic domain (JH1, amino acids 808-1132) of human JAK2 expressed as N-terminal His-tagged protein in a baculovirus expression system (BPS Bioscience, Catalog #40450). The assays was conducted in black 384-well polystyrene plates in a final reaction volume of 20 μL. JAK2 (0.015 nM) was incubated with compounds (100 nL serially diluted in DMSO) in the presence of ATP (30 μM or 1 mM) and 500 nM Biotin-labeled […] (SEQ ID NO.: 1) peptide (BioSource International, custom synthesis) in assay buffer (50 mM Tris, pH=7.5, 10 mM MgCl2, 0.01% Brij-35, 0.1% BSA, 1 mM EGTA, 5% Glycerol and 5 mM DTT) for 60 minutes at 25° C. The reactions were stopped by the addition of 10 μL of detection buffer (50 mM Tris, pH 7.8, 0.5 mg/mL BSA, 150 mM NaCl), supplemented with EDTA, LANCE Eu-W1024 anti-phosphotyrosine (PY20), (PerkinElmer, Catalog #AD0067) and Streptavidin SureLight APC (PerkinElmer Catalog #CR130-100), for a final concentration of 15 mM, 1.5 nM and 75 nM, respectively. HTRF signals were read after 30 minutes incubation at room temperature on a PHERAstar FS plate reader (BMG LABTECH). Data was analyzed with IDBS XLfit and GraphPad Prism 5.0 software using a four parameter dose response curve to determine IC50 for each compound.

catalytic domain (JH1, amino acids 826-1132) of human JAK2, sequence (O60674 826-1132): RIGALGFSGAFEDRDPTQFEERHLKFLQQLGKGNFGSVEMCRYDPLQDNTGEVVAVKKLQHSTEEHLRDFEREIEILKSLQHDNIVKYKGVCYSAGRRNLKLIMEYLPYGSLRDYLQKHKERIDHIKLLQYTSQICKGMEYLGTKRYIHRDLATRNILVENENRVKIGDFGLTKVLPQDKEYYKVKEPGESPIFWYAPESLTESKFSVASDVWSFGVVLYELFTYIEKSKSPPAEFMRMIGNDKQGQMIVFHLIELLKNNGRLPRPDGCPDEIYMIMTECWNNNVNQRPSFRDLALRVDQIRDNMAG

How did the IC50 [1] turn out when `COc1ccc(-c2c(C3CC3)[nH]c3ncc4c(c23)CN(c2ccc(C(=O)O)cc2)C(=O)N4C)cc1` [Example 26, 4-(8-Cyclopropyl-9-(4-methoxyphenyl)-4-methyl-3-oxo-1,3,4,7-tetrahydro-2H-pyrrolo[3′,2′:5,6]pyrido[3,4-d]pyrimidin-2-yl)benzoic acid] was run?
The IC50 was greater than 2500 nM.

What about the IC50 [2] of the same compound?
The IC50 was 100 to 500 nM.

What about the IC50 [3] of the same compound?
The IC50 was 100 to 500 nM.

What about the IC50 [4] of the same compound?
The IC50 was greater than 2500 nM.
